{"source": "patent US11236354B2", "about": "“Glyphosate-n-acetyltransferase (GLYAT) sequences and methods of use” (PIONEER HI-BRED INTERNATIONAL, INC., priority 2013, dated 2022)", "test_in_all_cases": "Substrate saturation kinetic analysis of purified GLYAT", "key": {"[1]": {"biological_target": "GLYAT high specificity variant SEQ ID NO:29 (derived from SEQ ID NO:1 and 2; C29I, F31Y; motif VIMYETDLL, SEQ ID NO:174) (Bacillus licheniformis, UniProt Q65LG7)", "assay_type": "biochemical", "method": "E. coli cultures in LB or 2×YT were grown overnight at 37° C. to saturation. The cells were used as a 2% inoculum into fresh media. When OD reached 0.6, IPTG was added to 0.2 mM and growth was continued for at least 6 hours. Cells were harvested by centrifugation and stored at −80° C. Cells were lysed with BPER (Pierce) containing 1 mM dithiothreitol, 0.2 mg/ml lysozyme, 2 mg/ml protease inhibitor cocktail (Sigma bacterial cell cocktail, P8465) and endonuclease. […] Purity as evaluated by polyacrylamide gel electrophoresis was deemed consistently high enough to be assumed to be 100%. Protein concentration was determined with the Bradford assay using a large-scale lot of produced GLYAT protein as standard.\nKinetic parameters for various substrates were obtained using a range of seven substrate concentrations plus a blank containing none of the varied substrate. […] Absorbance was monitored for one minute with a Spectramax 384 Plus plate reader (Molecular Devices). If the amino acid present at position 30 (29 if alanine is absent at position 2) was cysteine, absorbance was monitored at 235 nm, which directly detects cleavage of the sulfoester bond of acetyl CoA. […]"}, "[2]": {"biological_target": "GLYAT variant SEQ ID NO:4 (derived from SEQ ID NO:1 and 2) (Bacillus licheniformis, UniProt Q65LG7, D131E/E14D/E65Q/E67K/E68K/G37R/G38S/I132T/I135A/I15L/I19V/I53V/I91V/K101R/K144R/K58Q/L105M/L26I/L36T/L97I/M75V/R47G/R92K/T33S/T89S/V114A/Y130F/Y31F/Y45F)", "details": "pH 7.0"}, "[3]": {"biological_target": "GLYAT (glyphosate-N-acetyltransferase), parent of saturation mutagenesis (already fit protein), SEQ ID NO:26 (derived from SEQ ID NO:1 and 2) (Bacillus licheniformis, UniProt Q65LG7, A28V/C29I/D131E/E14D/E65Q/E67K/E68K/E83D/G37R/I132T/I135A/I15L/I19V/I53V/I91V/K101R/K144R/K58Q/L105M/L26I/L97I/M75V/R47G/R92K/T89S/V114A/Y130F/Y45F)", "assay_type": "biochemical", "method": "E. coli cultures in LB or 2×YT were grown overnight at 37° C. to saturation. The cells were used as a 2% inoculum into fresh media. When OD reached 0.6, IPTG was added to 0.2 mM and growth was continued for at least 6 hours. Cells were harvested by centrifugation and stored at −80° C. Cells were lysed with BPER (Pierce) containing 1 mM dithiothreitol, 0.2 mg/ml lysozyme, 2 mg/ml protease inhibitor cocktail (Sigma bacterial cell cocktail, P8465) and endonuclease. Lysate supernatants were passed through a column of NHS-activated Agarose (Thermo, #26197) derivatized with coenzyme A. Columns were washed with 25 mM Hepes, pH 7, containing progressively higher concentrations of KCl, then eluted with 25 mM Hepes, 100 mM KCl, 10% ethylene glycol and 1 mM acetyl CoA. Purity as evaluated by polyacrylamide gel electrophoresis was deemed consistently high enough to be assumed to be 100%. Protein concentration was determined with the Bradford assay using a large-scale lot of produced GLYAT protein as standard.\nKinetic parameters for various substrates were obtained using a range of seven substrate concentrations plus a blank containing none of the varied substrate. The non-varied substrate was present at a saturating concentration. Six-microliter aliquots of 50-fold concentrated stock solutions of the varied substrate were placed in a 96-well assay plate (Greiner BioOne UV-Star). Reactions were started with the addition of 294 ul of 25 mM Hepes, pH 7.0, 100 mM KCL, 10% ethylene glycol, the non-varied substrate and 10 to 200 nM enzyme. Absorbance was monitored for one minute with a Spectramax 384 Plus plate reader (Molecular Devices). If the amino acid present at position 30 (29 if alanine is absent at position 2) was cysteine, absorbance was monitored at 235 nm, which directly detects cleavage of the sulfoester bond of acetyl CoA. If the amino acid present at position 30 (29 if alanine is absent at position 2) was isoleucine, 0.5 mM 5,5′-dithiobis-(2-nitrobenzoic acid), which reacts with the coenzyme A thiol generated in the enzyme catalyzed reaction, was included in the reaction mix and absorbance was monitored at 412 nm. Initial rates were processed by the Softmax software to obtain kinetic parameters, using the double-reciprocal transformation.\nThe sequences with the new substitutions were derived through a combination of saturation mutagenesis of an already fit protein (SEQ ID NO:26) and an effective screening cascade as a means of identifying the improved genes (Examples 1-2). Regions in which novel changes are concentrated include helix H2a (positions 23 and 25-29) and the hairpin formed by strands B6 and B7 (positions 124-144). These two structures are components of the amino substrate binding site. Helix H3, the backbone to which the central beta sheet is anchored, is a region where 24% of the novel substitutions (17 out of 71) disclosed in Table 4 are concentrated into 11% of the positions (16 out of 146). None of those are near enough to the active site to influence substrate specificity directly. In three cases, multiple novel substitutions were discovered immediately or nearly adjacent to conserved amino acids shown previously to contribute to the catalytic mechanism (Siehl D L et. al., J Biol Chem, 282:11446, 2007). The catalytic amino acids for which this is the case are R21, R111, H138 and the nearby positions with multiple substitutions are 23, 112 and 137. The diverse amino acids at these positions may influence the orientation of the neighboring catalytic amino acids so as to selectively optimize catalysis with the preferred substrate, glyphosate."}, "[4]": {"biological_target": "GLYAT (glyphosate-N-acetyltransferase), parent, SEQ ID NO:1 (Bacillus licheniformis, UniProt Q65LG7, E119R/E14D/E65Q/E67K/E68K/G37R/G38S/I132T/I135V/I15L/I19V/I53V/I91V/K101R/K144R/K58Q/L105M/L106I/L145I/L26I/L36T/L97I/M75V/R47G/R92K/T33S/T89S/V114A/Y130F/Y31F/Y45F)"}, "[5]": {"biological_target": "GLYAT variant SEQ ID NO:6 (derived from SEQ ID NO:1 and 2) (Bacillus licheniformis, UniProt Q65LG7, A28V/D131E/E119K/E14D/E65Q/E67K/E68K/G37R/I132T/I135A/I15L/I19V/I53V/I91V/K101R/K144R/K58Q/L105M/L106I/L26I/L36T/L97I/M75A/R47G/R92K/T89S/V114A/V4I/Y130F/Y45F/Y46C)", "details": "pH 7.0"}, "[6]": {"details": "pH 7.0, non-varied substrate saturating"}}, "note": "Several values for one entry are separate records, joined by “and”; a condition that tells them apart may be missing. Equal entries are not always repeated."}
{"smiles": "N[C@@H](CC(=O)O)C(=O)O", "note": "[aspartate]", "values": [{"measurement": "activity with aspartate (kcat/Km)", "setting": "[1]; 25 mM Hepes, pH 7.0", "value": 8, "unit": "M⁻¹ s⁻¹"}, {"measurement": "kcat/Km asp, % glyph", "setting": "[1]; Table 5, ratio of kcat/Km asp to kcat/Km glyph", "value": 0.013, "unit": "%"}, {"measurement": "Asp as % of glyph (kcat/KM asp / kcat/KM glyph)", "setting": "[2]", "value": 0.210, "unit": "%"}, {"measurement": "Asp as % of glyph (kcat/KM asp / kcat/KM glyph)", "setting": "[3]; pH 7.0", "value": 0.038, "unit": "%"}, {"measurement": "kcat (aspartate)", "setting": "[3]; [6]", "value": 1.5, "unit": "s⁻¹"}, {"measurement": "kcat/KM (aspartate)", "setting": "[3]; [6]", "value": 16, "unit": "M⁻¹ s⁻¹"}, {"measurement": "kcat/KM with aspartate", "setting": "[4]; 25 mM Hepes, pH 7.0", "value": 228, "unit": "M⁻¹ s⁻¹"}, {"measurement": "kcat/Km asp, % glyph", "setting": "[4]; Table 5 and text, specificity (kcat/KM asp/kcat/KM glyph), listed as asp", "value": "1.3% and 1.27%"}, {"measurement": "Asp as % of glyph (kcat/KM asp / kcat/KM glyph)", "setting": "[4]; pH 7.0", "value": 1.273, "unit": "%"}, {"measurement": "Asp as % of glyph (kcat/KM asp / kcat/KM glyph)", "setting": "[5]", "value": 0.052, "unit": "%"}]}
